In the experiment the target is T1, dopamine D1 receptor (D1R) (Homo sapiens, UniProt P21728).
T1 construct: gene DRD1; endogenous full-length receptor in SK-N-SH neuroblastoma cells
Kind of experiment: ELISA, agonist-induced receptor recognition by anti-D1R antibody, SK-N-SH cells. The format is cell-based. The following applies: 1 μM agonist; endogenous receptor. Background: An ELISA detects its analyte on a solid surface through an enzyme-linked reagent.

T1 sequence (P21728 whole entry): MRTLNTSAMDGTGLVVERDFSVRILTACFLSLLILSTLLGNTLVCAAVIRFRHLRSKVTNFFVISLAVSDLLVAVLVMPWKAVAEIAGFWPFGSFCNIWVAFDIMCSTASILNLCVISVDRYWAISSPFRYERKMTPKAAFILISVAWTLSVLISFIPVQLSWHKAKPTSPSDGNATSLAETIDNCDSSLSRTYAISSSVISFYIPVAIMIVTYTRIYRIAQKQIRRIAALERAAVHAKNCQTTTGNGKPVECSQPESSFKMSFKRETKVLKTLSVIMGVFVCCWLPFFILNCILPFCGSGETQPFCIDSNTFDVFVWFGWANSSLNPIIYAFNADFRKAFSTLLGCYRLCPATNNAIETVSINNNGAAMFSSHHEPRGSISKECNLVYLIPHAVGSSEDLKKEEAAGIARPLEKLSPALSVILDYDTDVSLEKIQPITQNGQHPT

Take `C=CCN1CCc2c(cc(O)c(O)c2Cl)C(c2cccc(C)c2)C1` (stereo not shown) [SKF83822]: the “ELISA, agonist-induced receptor recognition by anti-D1R antibody, SK-N-SH cells” value is recorded as “treatment with the dopamine D1 receptor (D1R) agonist, SKF83822”.

The values above are taken from publication PMC5665533, “Generation of G protein-coupled receptor antibodies differentially sensitive to conformational states” (PLoS ONE, 2017).
